# From patent US11786507B2, “Methods of treating HIV-associated neurological disorders (HAND)” (priority 2020, dated 2023)
# How the values were obtained:
# [1] = system: microglia in CORT of Wt and iTat mice; assay: Iba-1 immunohistochemistry (DAB), microglia morphology in CORT; assay type: in vivo, mouse; details: PAM-treated iTat mice
# Procedure: Mice were anesthetized using avertin (tribromoethanol) and transcardially perfused with first phosphate-buffered saline (PBS) and then 4% paraformaldehyde (PFA). Then, the brains were dissected out, fixed in 4% PFA at 4° C. overnight, dehydrated in 30% sucrose, embedded in OCT, sagittally sectioned (20 μm) using a cryostat, and preserved in a cryoprotectant containing 30% ethylene glycol, 30% glycerol, and 40% PBS. For staining, floating sections were permeabilized in 0.1% triton X-100 in PBS (PBST), blocked by 1% BSA in PBST, probed by Iba-1 antibody (Wako, catalog #019-19741, and 1:800 dilution), inactivated endogenous peroxidases in 1% hydrogen peroxide, probed again by a goat anti-rabbit secondary antibody (Southern Biotech, catalog #4030-05, and 1:200 dilution), and developed using a DAB kit (Abeam, catalog #ab103723). All images were taken using a Nikon Eclipse E800 microscope with a 20× objective and analyzed by the Cellprofiler program. Every section was averaged from three brain regions prefrontal, occipital and parietal cortex, and the average of the three sections was used to represent individual animals.
# To further determine the relationship between microglia activation, Tat neurotoxicity, and PAM/α7 nAChR, immunohistochemistry staining was performed on microglia in CORT of Wt and iTat mice treated with and without PAM (FIG. 1). […]
# [2] = system: MAPK signaling pathways; assay: Western blotting of total and phosphorylated p38, JNK, ERK in cortex and hippocampus; assay type: in vivo, mouse; details: PAM 15 mg/kg/day s.c.
# From the text: Doxycycline (Dox)-inducible and astrocyte-specific HIV-1 Tat-transgenic mice (iTat) were generated as previously described.^38 Wild-type (Wt, C57BL/6) and α7 nAChR knockout mice (α7^−/−, B6.129S7-Chrna^7tm1Ba/J) were purchased from the Jackson Laboratory (Bar Harbor, ME). All the animal procedures were approved by the Institutional Animal Care and Use Committee. Mice were housed with a 12-hour light and 12-hour dark photoperiod and provided water and food ad libitum. α7^−/− iTat mice were generated by cross breeding iTat mice with α7^−/− mice. α7^−/− genotyping was slightly modified with the JumpStart™ Taq DNA Polymerase-based PCR (JumpStart™ Taq DNA Polymerase, Sigma, catalog #D9307). […] Mice of 10-14 weeks old with body weights of 20-35 grams were fed with Dox-containing diet (0.625 g/kg, Envigo, catalog #TD.01306) as stated.
# A RIPA buffer (50 mM Tris.HCl, pH 8.0, 280 mM NaCl, 0.5% NP-40, 1% C24H39NaO4, 0.2 mM EDTA, 2 mM EGTA and 10% glycerol) supplemented with protease inhibitors (Millipore-Sigma, catalog #S8830) and phosphatase inhibitors (Millipore-Sigma, catalog #4906845001) was used to lyse the brain tissues and cultured cells with brief sonication on ice. Protein concentrations of the lysates were determined using a Bio-Rad DC protein assay kit (Bio-Rad, catalog #5000111). Lysates were denatured in the SDS-PAGE loading buffer at 100° C. for 10 min, then electrophoretically separated by 8-15% SDS-PAGE, blotted onto 0.45 μm polyvinylidene fluoride membrane (GE Healthcare Life Sciences, catalog #10600023), and probed using appropriate antibodies against PSD-95 (Abcam, catalog #ab18258, and 1:2000 dilution), SYP (Abcam, catalog #ab8049, and 1:1000 dilution), Iba-1 (Wako, catalog #016-20001, and 1:500 dilution) and GFAP (DAKO, catalog #z330s, and 1:2000 dilution), p-p38 (Santa Cruz, catalog #sc-166182, and 1:1000 dilution), p38 (Santa cruz, catalog #sc-535, and 1:1000 dilution), p-JNK (Santa cruz, catalog #sc-6254, and 1:1000 dilution), JNK (Santa cruz, catalog #sc-571, and 1:1000 dilution), p-ERK (Santa cruz, catalog #sc-7383, and 1:1000 dilution), and ERK (Santa cruz, catalog #sc-514302, and 1:1000 dilution), α7 nAChR (Alomone, catalog #ANC-007, and 1:1000 dilution) and β-actin (Sigma-Aldrich, catalog #A1978, and 1:2000 dilution). A Bio-Rad ChemicDoc imaging system (Bio-Rad) and Image J were used for image capturing and analysis, respectively.
# It was next determined which MAPK signaling pathways were responsive to PAM neuroprotective effects against Tat-induced neuropathologies. Both CORT and HIP were analyzed for expression and phosphorylation of p38, JNK, and ERK.
smiles,measurement,setting,value
"COc1cc(OC)c(NC(=O)Nc2cc(C)on2)cc1Cl [PAM, 1-(5-chloro-2,4-dimethoxy-phenyl)-3-(5-methyl-isoxazol-3-yl)-urea]",Number of microglia branches and endpoints,[1],fewer branches and endpoints than PAM-treated Wt mice and DMSO-treated iTat mice
same,p38 and p-p38α,[2]; CORT and HIP,increases of both p38 and p-p38α in both CORT and HIP
same,p-ERK,"[2]; CORT and HIP, iTat and Wt mice",no differences of p-ERK in CORT and HIP of both iTat and Wt mice
same,JNK,"[2]; CORT, Wt and iTat mice","increases of JNK in CORT of Wt mice, increases of JNK in CORT of iTat mice"
same,p-JNK,"[2]; CORT, all mice",no differences of p-JNK in CORT of all mice
same,JNK and p-JNK,"[2]; HIP, all mice",increases of JNK and p-JNK in HIP of all mice
same,ERK,"[2]; HIP, iTat mice",decreases of ERK in HIP of iTat mice
